Read-outs that look alike come from different tables or passages of the source.
Assays:
[1] = test system: HCV genotype 1a (H77 strain) replicon in HUH-7 cells; assay: HCV replicon luciferase reporter assay, genotype 1a; format: cell-based; details: Hepatitis C virus, Huh-7, 72 h, 3 days incubation, read-out: LE_1a (EC50, range)
Outline: (§1)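 Replicon inhibition for both genotypes was measured as Renilla luciferase signal (EnduRen, 7.5 μM final, 2 h) after 3-day, 37° C exposure of replicon-bearing HUH-7 cells in 4% FCS DMEM, 0.5% DMSO. The 1b construct carries S1179I; the 1a H77 construct carries P1496L and S2204I. Twenty-point, 3-fold dilutions were fitted four-parametrically for EC50, and CC50 was taken from multiplexed Cell Titer-Blue.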

[2] = test system: HCV genotype 1b (Con1) replicon in HUH-7 cells; assay: HCV replicon luciferase reporter assay, genotype 1b; format: cell-based; details: Hepatitis C virus, Huh-7, 72 h, 3 days incubation, read-out: LE_1b (EC50, range)
Outline: as §1

[3] = HCV genotype 1a replicon luciferase
[4] = HCV genotype 1b replicon luciferase
[5] = HCV genotype 1a replicon luciferase assay, range class
[6] = HCV genotype 1b replicon luciferase assay, range class
[7] = GETYPE1A, HCV genotype 1a replicon luciferase
[8] = GETYPE1B, HCV genotype 1b replicon luciferase

Row | SMILES | EC50 [1, 3] [nM] | EC50 [2, 4] [nM] | EC50 [1, 5] [nM] | EC50 [2, 6] [nM] | other results
1 | CC[C@@H]1C[C@H](C)CC/C=C\[C@@H]2C[C@@]2(C(=O)NS(=O)(=O)C2(C)CC2)NC(=O)[C@@H]2C[C@@H](Oc3nccc4cc(OC)c(F)cc34)CN2C(=O)[C@H]1NC(=O)N1CCN(C)CC1 [Compound 4335, (2R,6S,7R,9R,13aS,14aR,16aS,Z)-7-ethyl-2-((7-fluoro-6-methoxyisoquinolin-1-yl)oxy)-9-methyl-N-((1-methylcyclopropyl)sulfonyl)-6-(4-methylpiperazine-1-carboxamido)-5,16-dioxo-1,2,3,5,6,7,8,9,10,11,13a,14,14a,15,16,16a-hexadecahydrocyclopropa[e]pyrrolo[1,2-a][1,4]diazacyclopentadecine-14a-carboxamide] | 5.01 to 35 | 5.01 to 35 | – | – | –
2 | CCn1nc(O[C@@H]2C[C@H]3C(=O)N[C@]4(C(=O)NS(=O)(=O)C5CC5)C[C@H]4/C=C\CC[C@H](C)C[C@@H](C)[C@H](NC(=O)OC(C)(C)C(F)(F)F)C(=O)N3C2)c2ccccc2c1=O [Compound 5066, 1,1,1-trifluoro-2-methylpropan-2-yl((2R,6S,7R,9S,13aS,14aR,16aS,Z)-14a-((cyclopropylsulfonyl)carbamoyl)-2-((3-ethyl-4-oxo-3,4-dihydrophthalazin-1-yl)oxy)-7,9-dimethyl-5,16-dioxo-1,2,3,5,6,7,8,9,10,11,13a,14,14a,15,16,16a-hexadecahydrocyclopropa[e]pyrrolo[1,2-a][1,4]diazacyclopentadecin-6-yl)carbamate] | > 87.4 | > 87.4 | – | – | –
3 | C[C@H]1CC/C=C\[C@@H]2C[C@@]2(C(=O)NS(=O)(=O)C2(C)CC2)NC(=O)[C@@H]2C[C@@H](Oc3nc(OCC(F)F)cc4c(Cl)cccc34)CN2C(=O)[C@@H](NC(=O)O[C@H](C)C(F)(F)F)[C@H](C)C1 [Compound 1107, (R)-1,1,1-trifluoropropan-2-yl ((2R,6S,7R,9S,13aS,14aR,16aS,Z)-2-((5-chloro-3-(2,2-difluoroethoxyl)isoquinolin-1-yl)oxy)-7,9-dimethyl-14a-(((1-methylcyclopropyl)sulfonyl)carbamoyl)-5,16-dioxo-1,2,3,5,6,7,8,9,10,11,13a,14,14a,15,16,16a-hexadecahydrocyclopropa[e]pyrrolo[1,2-a][1,4]diazacyclopentadecin-6-yl)carbamate] | – | – | 4.82 to 103 | < 5.46 | –
4 | COc1cnc(O[C@@H]2C[C@H]3C(=O)N[C@]4(C(=O)NS(=O)(=O)C5(CF)CC5)C[C@H]4/C=C\CC[C@@H](C)C[C@@H](C)[C@H](NC(=O)OC4(C)CCCOC4)C(=O)N3C2)c2ccccc12 (stereo partly drawn) [Compound 1056, 3-methyltetrahydro-2H-pyran-3-yl((2R,6S,7R,9R,13aS,14aR,16aS,Z)-14a-(((1-(fluoromethyl)cyclopropyl)sulfonyl)carbamoyl)-2-((4-methoxyisoquinolin-1-yl)oxy)-7,9-dimethyl-5,16-dioxo-1,2,3,5,6,7,8,9,10,11,13a,14,14a,15,16,16a-hexadecahydrocyclopropa[e]pyrrolo[1,2-a][1,4]diazacyclopentadecin-6-yl)carbamate] | – | – | < 5.46 | < 5.46 | –
5 | COc1ccc2c(O[C@@H]3C[C@H]4C(=O)N[C@]5(C(=O)NS(=O)(=O)C6(C)CC6)C[C@H]5/C=C\CC[C@@H](C)C[C@@H](C)[C@H](NC(=O)OC(C)(C)C)C(=O)N4C3)nc(-c3ccc(OC(C)C)cc3)nc2c1 [Compound 3008, tert-butyl ((2R,6S,7R,9R,13aS,14aR,16aS,Z)-2-((2-(4-isopropoxyphenyl)-7-methoxyquinazolin-4-yl)oxy)-7,9-dimethyl-14a-(((1-methylcyclopropyl)sulfonyl)carbamoyl)-5,16-dioxo-1,2,3,5,6,7,8,9,10,11,13a,14,14a,15,16,16a-hexadecahydrocyclopropa[e]pyrrolo[1,2-a][1,4]diazacyclopentadecin-6-yl)carbamate] | – | – | < 5.46 | < 5.46 | –
6 | [2H]C([2H])([2H])C(OC(=O)N[C@@H]1C(=O)N2C[C@H](Oc3nccc4c5c(ccc34)N(C)CCO5)C[C@H]2C(=O)N[C@]2(C(=O)NS(=O)(=O)C3CC3)C[C@H]2/C=C\CC[C@@H](C)C[C@H]1C)(C([2H])([2H])[2H])C([2H])([2H])[2H] [Compound 5288, 1,1,1,3,3,3-hexadeutero-2-(trideuteromethyl)propan-2-yl((2R,6S,7R,9R,13aS,14aR,16aS,Z)-14a-((cyclopropylsulfonyl)carbamoyl)-7,9-dimethyl-2-((4-methyl-3,4-dihydro-2H-[1,4]oxazino[2,3-f]isoquinolin-7-yl)oxy)-5,16-dioxo-1,2,3,5,6,7,8,9,10,11,13a,14,14a,15,16,16a-hexadecahydrocyclopropa[e]pyrrolo[1,2-a][1,4]diazacyclopentadecin-6-yl)carbamate] | < 5.46 | < 5.46 | – | – | –
7 | COc1ccc2c(O[C@@H]3C[C@H]4C(=O)N[C@]5(C(=O)NS(=O)(=O)C6(CF)CC6)C[C@H]5/C=C\CC[C@@H](C)C[C@@H](C)[C@H](NC(=O)OC(C)(C)C(F)(F)F)C(=O)N4C3)ncc(OC)c2c1 [Compound 4154] | – | – | – | – | EC50 [1, 7]: < 5.46 nM; EC50 [2, 8]: < 5.46 nM
8 | COc1ccc2c(Cl)cc(O[C@@H]3C[C@H]4C(=O)N[C@]5(C(=O)NS(=O)(=O)C6(C)CC6)C[C@H]5/C=C\CC[C@@H](C)C[C@@H](C)[C@H](NC(=O)OC(C)(C)C(F)(F)F)C(=O)N4C3)nc2c1 [Compound 4302] | – | – | – | – | EC50 [1, 7]: 1.01 to 5 nM; EC50 [2, 8]: 1.01 to 5 nM
9 | COc1cc(F)cc2c(O[C@@H]3C[C@H]4C(=O)N[C@]5(C(=O)NS(=O)(=O)C6(CF)CC6)C[C@H]5/C=C\CC[C@H](C)C[C@@H](C)[C@H](NC(=O)OC(C)(C)C(F)(F)F)C(=O)N4C3)nccc12 [Compound 3175, 1,1,1-trifluoro-2-methylpropan-2-yl((2R,6S,7R,9S,13aS,14aR,16aS,Z)-2-((7-fluoro-5-methoxyisoquinolin-1-yl)oxy)-14a-(((1-(fluoromethyl)cyclopropyl)sulfonyl)carbamoyl)-7,9-dimethyl-5,16-dioxo-1,2,3,5,6,7,8,9,10,11,13a,14,14a,15,16,16a-hexadecahydrocyclopropa[e]pyrrolo[1,2-a][1,4]diazacyclopentadecin-6-yl)carbamate] | – | – | 4.82 to 103 | 4.82 to 103 | –
10 | CCOc1ccc2c(O[C@@H]3C[C@H]4C(=O)N[C@]5(C(=O)NS(=O)(=O)C6CC6)C[C@H]5/C=C\CC[C@@H](C)C[C@@H](CC)[C@H](NC(=O)OC(C)(C)C)C(=O)N4C3)nccc2c1 [Compound 5361, tert-butyl ((2R,6S,7R,9R,13aS,14aR,16aS,Z)-14a-((cyclopropylsulfonyl)carbamoyl)-2-((6-ethoxyisoquinolin-1-yl)oxy)-7-ethyl-9-methyl-5,16-dioxo-1,2,3,5,6,7,8,9,10,11,13a,14,14a,15,16,16a-hexadecahydrocyclopropa[e]pyrrolo[1,2-a][1,4]diazacyclopentadecin-6-yl)carbamate] | 0.51 to 1 | 0.51 to 1 | – | – | –
11 | COc1cnc(O[C@@H]2C[C@H]3C(=O)N[C@]4(C(=O)NS(=O)(=O)C5(C)CC5)C[C@H]4/C=C\CC[C@@H](C)C[C@@H](C)[C@H](NC(=O)OC(C)(C)C(F)(F)F)C(=O)N3C2)c2ccc(N(C)C)cc12 [Compound 3138, 1,1,1-trifluoro-2-methylpropan-2-yl((2R,6S,7R,9R,13aS,14aR,16aS,Z)-2-((6-(dimethylamino)-4-methoxyisoquinolin-1-yl)oxy)-7,9-dimethyl-14a-(((1-methylcyclopropyl)sulfonyl)carbamoyl)-5,16-dioxo-1,2,3,5,6,7,8,9,10,11,13a,14,14a,15,16,16a-hexadecahydrocyclopropa[e]pyrrolo[1,2-a][1,4]diazacyclopentadecin-6-yl)carbamate] | – | – | < 5.46 | < 5.46 | –
12 | COCCOc1cnc(O[C@@H]2C[C@H]3C(=O)N[C@]4(C(=O)NS(=O)(=O)C5CC5)C[C@H]4/C=C\CC[C@H](C)C[C@@H](C)[C@H](NC(=O)OC(C)(C)C)C(=O)N3C2)c2ccc(OC)cc12 [Compound 1154, tert-butyl ((2R,6S,7R,9S,13aS,14aR,16aS,Z)-14a-((cyclopropylsulfonyl)carbamoyl)-2-((6-methoxy-4-(2-methoxyethoxyl)isoquinolin-1-yl)oxy)-7,9-dimethyl-5,16-dioxo-1,2,3,5,6,7,8,9,10,11,13a,14,14a,15,16,16a-hexadecahydrocyclopropa[e]pyrrolo[1,2-a][1,4]diazacyclopentadecin-6-yl)carbamate] | – | – | < 5.46 | < 5.46 | –
13 | CC(C)n1nc(O[C@@H]2C[C@H]3C(=O)N[C@]4(C(=O)NS(=O)(=O)C5CC5)C[C@H]4/C=C\CC[C@H](C)C[C@@H](C)[C@H](NC(=O)OC(C)(C)C(C)(F)F)C(=O)N3C2)c2ccccc2c1=O [Compound 1017, 3,3-difluoro-2-methylbutan-2-yl((2R,6S,7R,9S,13aS,14aR,16aS,Z)-14a-((cyclopropylsulfonyl)carbamoyl)-2-((3-isopropyl-4-oxo-3,4-dihydrophthalazin-1-yl)oxy)-7,9-dimethyl-5,16-dioxo-1,2,3,5,6,7,8,9,10,11,13a,14,14a,15,16,16a-hexadecahydrocyclopropa[e]pyrrolo[1,2-a][1,4]diazacyclopentadecin-6-yl)carbamate] | – | – | > 87.4 | > 87.4 | –

Source: patent US9499550B2 (BRISTOL-MYERS SQUIBB COMPANY, priority 2012, dated 2016)
